Reference: patent US20230091047A1 (priority 2019, published 2023)
Where two headings read alike, the source gives them in different places.

Assays:
[1] = test system: HBV (HepG2.117 cell line, inducibly HBV producing); assay: Anti-HBV activity: intracellular HBV DNA by real-time PCR in HepG2.117 cells after 3 days of treatment; assay type: cell-based, hepatitis B virus
Summary of the method: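 Read-out is intracellular HBV DNA, measured by real-time PCR using HBV-specific primers and probe. Cells were stable, inducible HBV-producing HepG2.117 (Tet-off). Serially diluted compound was applied for 3 days after replication was induced.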

in vitro = assay type: cell-based; settings: human, HepG2 or HepG2.117 cells, ATPlite, mean value
Summary of the method: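 Luminescent ATP quantitation served as the viability endpoint following a 3- or 4-day incubation with test compounds.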

[2] = Hepatitis B virus, HepG2.117, 72 h, HepG2.117 cells, 3 days of treatment, intracellular HBV DNA by real-time PCR; mean value; read-out: EC50 (μM, mean value)
[3] = 3-days incubation (unmarked values)
[4] = Hepatitis B virus, HepG2.117, 72 h, HepG2.117 cells, intracellular HBV DNA by real-time PCR, 3 days of treatment, mean value; read-out: EC50 (μM, mean value)
[5] = 3-days incubation (not marked with *)

SMILES | EC50 [1, 2] [µM] | CC50 at 3 days (in vitro; [3]) [µM] | EC50 [1, 4] [µM] | CC50 at 3 days (in vitro; [5]) [µM] | CC50 at 4 days (in vitro; 4-days incubation (values marked with *)) [µM]
CNC(=O)c1ccc(-n2c(N[C@H](c3ccccc3)C3CC3)nc3c(c2=O)C[C@@H](C)N(C(=O)c2ccc(Cl)c(Cl)c2)C3)cc1 (single isomer, unassigned) [Compound C343, 4-[(6R)-2-{[(*S)-cycopropyl(phenyl)methyl]amino}-7-(3,4-dichlorobenzoyl)-6-methyl-4-oxo-5,6,7,8-tetrahydropyrido[3,4-d]pyrimidin-3(4H)-yl]-N-methylbenzamide] | 0.19 | 13.7 |  |  | 
CC(C)Nc1nc2c(c(=O)n1-c1ccc(-n3ccnn3)cc1)C[C@@H](C)N(C(=O)c1ccc(Cl)c(Cl)c1)C2 [Compound C430] |  |  | 0.06 | > 50 | 
COc1ccc(CN(CCO)c2nc3c(c(=O)[nH]2)CCN(C(=O)c2ccc(Cl)c(Cl)c2)C3)cc1 [Compound C91, 7-(3,4-dichlorobenzoyl)-2-{(2-hydroxyethyl)[(4-methoxyphenyl)methyl]amino}-5,6,7,8-tetrahydropyrido[3,4-d]pyrimidin-4(3H)-one] | 8.92 | 22.2 |  |  | 
COc1ccccc1-n1c(N2CCCC2)nc2c(c1=O)CCN(C(=O)c1ccc(Cl)c(Cl)c1)C2 [Compound C39, 7-(3,4-dichlorobenzoyl)-3-(2-methoxyphenyl)-2-(pyrrolidin-1-yl)-5,6,7,8-tetrahydropyrido[3,4-d]pyrimidin-4(3H)-one] | 9.21 | > 50 |  |  | 
CNC(=O)c1ccc(-n2c(N(C)C34CC(C3)C4)nc3c(c2=O)C[C@@H](C)N(C(=O)c2ccc(Cl)c(Cl)c2)C3)cc1 [Compound C345, 4-[(6R)-2-[(bicyclo[1.1.1]pentan-1-yl)(methyl)amino]-7-(3,4-dichlorobenzoyl)-6-methyl-4-oxo-5,6,7,8-tetrahydropyrido[3,4-d]pyrimidin-3(4H)-yl]-N-methylbenzamide] | 0.32 | 21.6 |  |  | 
CNC(=O)c1ccc([C@H](C)Nc2nc3c(c(=O)n2-c2ccc(C(=O)NC)cc2)C[C@@H](C)N(C(=O)c2ccc(Cl)c(Cl)c2)C3)cc1 (single isomer, unassigned) [Compound C530b] |  |  | > 10 | > 50 | 
CC(C)Nc1nc2c(c(=O)n1-c1ccc(-c3ncc(F)cc3F)cc1)CCN(C(=O)c1ccc(Cl)c(Cl)c1)C2 [Compound C171, 7-(3,4-dichlorobenzoyl)-3-[4-(3,5-difluoropyridin-2-yl)phenyl]-2-[(propan-2-yl)amino]-5,6,7,8-tetrahydropyrido[3,4-d]pyrimidin-4(3H)-one] | 3.95 | 4.6 |  |  | 
CC(=O)c1ccc(-n2c(NC(C)C)nc3c(c2=O)CCN(C(=O)c2ccc(Cl)c(Cl)c2)C3)cc1 [Compound C127, 3-(4-acetylphenyl)-7-(3,4-dichlorobenzoyl)-2-[(propan-2-yl)amino]-5,6,7,8-tetrahydropyrido[3,4-d]pyrimidin-4(3H)-one] | 1.28 | > 50 |  |  | 
CNC(=O)c1ccc(-n2c(OC(C)C)nc3c(c2=O)C[C@@H](C)N(C(=O)c2ccc(Cl)c(Cl)c2)C3)c(Cl)c1 [Compound C403a] |  |  | 0.06 | 36.7 | 
CNC(=O)c1ccc(-n2c(NC3COC(C)(C)C3)nc3c(c2=O)C[C@@H](C)N(C(=O)c2ccc(Cl)c(Cl)c2)C3)cc1 (some centres unmarked) [Compound C480] |  |  | 10.3 | > 50 | 
COc1ccc(CNc2nc3c(c(=O)n2-c2ccccc2OC)CCN(C(=O)c2cc4ccccc4[nH]2)C3)cc1 [Compound C2, 7-(1H-indole-2-carbonyl)-2-((4-methoxybenzyl)amino)-3-(2-methoxyphenyl)-5,6,7,8-tetrahydropyrido[3,4-d]pyrimidin-4(3H)-one] | 1.75 |  |  |  | > 50
CC(C)Nc1nc2c(c(=O)n1-c1ccc(S(C)(=O)=O)cc1)CCN(C(=O)c1ccc3cncn3c1)C2 [Compound C356] | > 50 | > 50 |  |  | 
CNC(=O)c1ccc(-n2c(N[C@H](C)CCO)nc3c(c2=O)C[C@@H](C)N(C(=O)c2ccc(Cl)c(Cl)c2)C3)cc1 [Compound C326, 4-[(6R)-7-(3,4-dichlorobenzoyl)-2-{[(2R)-4-hydroxybutan-2-yl]amino}-6-methyl-4-oxo-5,6,7,8-tetrahydropyrido[3,4-d]pyrimidin-3(4H)-yl]-N-methylbenzamide] | 0.46 | > 50 |  |  | 
CNC(=O)c1ccc(-n2c(N3CCC[C@@H]3C)nc3c(c2=O)C[C@@H](C)N(C(=O)c2ccc(Cl)c(Cl)c2)C3)cc1 [Compound C271, 4-[(6R)-7-(3,4-dichlorobenzoyl)-6-methyl-2-[(2S)-2-methylpyrrolidin-1-yl]-4-oxo-5,6,7,8-tetrahydropyrido[3,4-d]pyrimidin-3(4H)-yl]-N-methylbenzamide] | 0.27 | 24.9 |  |  | 
CNC(=O)c1ccc(-n2c(N[C@H]3CCOc4cc(OC)ccc43)nc3c(c2=O)C[C@@H](C)N(C(=O)c2ccc(Cl)c(Cl)c2)C3)cc1 (single isomer, unassigned) [Compound C527b] |  |  | 0.65 | > 50 | 
CNC(=O)c1ccc(-n2c(N[C@@H](C)c3cccnc3OC)nc3c(c2=O)C[C@@H](C)N(C(=O)c2ccc(Cl)c(Cl)c2)C3)cc1 (relative stereo) [Compound C286, 4-[(rt)-7-(3,4-dichlorobenzoyl)-2-{[(1*S)-1-(2-methoxypyridin-3-yl)ethyl]amino}-6-methyl-4-oxo-5,6,7,8-tetrahydropyrido[3,4-d]pyrimidin-3(4H)-yl]-N-methylbenzamide] | 0.12 | 29 |  |  | 
CC(C)Nc1nc2c(c(=O)n1-c1ccc(S(C)(=O)=O)cc1)[C@H](C)CN(C(=O)c1ccc(Cl)c(Cl)c1)C2 (single isomer, unassigned) [Compound C154B, (*S)-7-(3,4-dichlorobenzoyl)-2-(isopropylamino)-5-methyl-3-(4-(methylsulfonyl)-phenyl)-5,6,7,8-tetrahydropyrido[3,4-d]pyrimidin-4(3H)-one] | 0.51 | > 50 |  |  | 
CNC(=O)c1cc(-n2c(NC(C)C)nc3c(c2=O)C[C@@H](C)N(C(=O)c2ccc(Cl)c(C(F)(F)F)c2)C3)n(C)n1 [Compound C645] |  |  | 0.04 | > 50 | 
COc1ccccc1-n1c(N[C@H](C)c2ccccc2)nc2c(c1=O)CCN(C(=O)c1ccc(Cl)c(Cl)c1)C2 [Compound C44, 7-(3,4-dichlorobenzoyl)-3-(2-methoxyphenyl)-2-{[(1R)-1-phenylethyl]amino}-5,6,7,8-tetrahydropyrido[3,4-d]pyrimidin-4(3H)-one] | 6.99 | 25.3 |  |  | 
CNC(=O)c1ccc(-n2c(NC(C)C)nc3c(c2=O)C[C@@H](C)N(C(=O)c2ccc(Cl)cc2C(F)(F)F)C3)cc1 [Compound C648] |  |  | 0.22 | > 50 | 
COc1ccc(CN(C)c2nc3c(c(=O)n2-c2ccccc2OC)CCN(C(=O)c2ccc(Cl)c(Cl)c2)C3)cc1 [Compound C43, 7-(3,4-dichlorobenzoyl)-3-(2-methoxyphenyl)-2-{[(4-methoxyphenyl)methyl](methyl)amino}-5,6,7,8-tetrahydropyrido[3,4-d]pyrimidin-4(3H)-one] | 5.64 | > 50 |  |  | 
CNC(=O)[C@H]1CC[C@H](n2c(N[C@@H](C)c3ccc(C(F)(F)F)cc3)nc3c(c2=O)C[C@@H](C)N(C(=O)c2ccc(Cl)c(Cl)c2)C3)CC1 [Compound C640] |  |  | 0.07 | 5.2 | 
CNC(=O)c1n[nH]c(-n2c(NC(C)C)nc3c(c2=O)C[C@@H](C)N(C(=O)c2ccc(Cl)c(Cl)c2)C3)c1C [Compound C693] |  |  | 0.11 | > 50 | 
COc1ccc(CNc2nc3c(c(=O)n2CC2CC2)CCN(C(=O)c2ccc(Cl)c(Cl)c2)C3)cc1 [Compound C59, 3-(cyclopropylmethyl)-7-(3,4-dichlorobenzoyl)-2-{[(4-methoxyphenyl)methyl]amino}-5,6,7,8-tetrahydropyrido[3,4-d]pyrimidin-4(3H)-one] | 2.53 | > 50 |  |  | 
CNC(=O)c1ccc(-n2c(NC(C)C)nc3c(c2=O)C[C@@H](C)N(C(=O)c2[nH]nc(C(F)(F)F)c2C)C3)cc1 [Compound C493] |  |  | 15.2 | > 50 | 
COc1ccc(CNc2nc3c(c(=O)n2CC2CCOCC2)CCN(C(=O)c2ccc(Cl)c(Cl)c2)C3)cc1 [Compound C65, 7-(3,4-dichlorobenzoyl)-2-{[(4-methoxyphenyl)methyl]amino}-3-[(oxan-4-yl)methyl]-5,6,7,8-tetrahydropyrido[3,4-d]pyrimidin-4(3H)-one] | 2.72 | 37.8 |  |  | 
COc1ccc(CNc2nc3c(c(=O)n2-c2ccc(S(C)(=O)=O)cc2)CCN(C(=O)c2ccc(Cl)c(Cl)c2)C3)cc1 [Compound C84, 7-(3,4-dichlorobenzoyl)-3-[4-(methanesulfonyl)phenyl]-2-{[(4-methoxyphenyl)methyl]amino}-5,6,7,8-tetrahydropyrido[3,4-d]pyrimidin-4(3H)-one] | 0.57 | > 50 |  |  | 
COc1ccc(CNc2nc3c(c(=O)[nH]2)CCN(C(=O)c2ccc(Cl)c(F)c2)C3)cc1 [Compound C106, 7-(4-chloro-3-fluorobenzoyl)-2-{[(4-methoxyphenyl)methyl]amino}-5,6,7,8-tetrahydropyrido[3,4-d]pyrimidin-4(3H)-one] | 21.1 | 27.1 |  |  | 
